Measurements as given in ChEMBL document CHEMBL5291721, “A preclinical secondary pharmacology resource illuminates target-adverse drug reaction associations of marketed drugs” (Nat Commun, 2023).

Columns and labels:
[1] = biological target: T1, Alpha-1A adrenergic receptor (Homo sapiens, UniProt P35348)
T1 sequence (P35348 whole entry): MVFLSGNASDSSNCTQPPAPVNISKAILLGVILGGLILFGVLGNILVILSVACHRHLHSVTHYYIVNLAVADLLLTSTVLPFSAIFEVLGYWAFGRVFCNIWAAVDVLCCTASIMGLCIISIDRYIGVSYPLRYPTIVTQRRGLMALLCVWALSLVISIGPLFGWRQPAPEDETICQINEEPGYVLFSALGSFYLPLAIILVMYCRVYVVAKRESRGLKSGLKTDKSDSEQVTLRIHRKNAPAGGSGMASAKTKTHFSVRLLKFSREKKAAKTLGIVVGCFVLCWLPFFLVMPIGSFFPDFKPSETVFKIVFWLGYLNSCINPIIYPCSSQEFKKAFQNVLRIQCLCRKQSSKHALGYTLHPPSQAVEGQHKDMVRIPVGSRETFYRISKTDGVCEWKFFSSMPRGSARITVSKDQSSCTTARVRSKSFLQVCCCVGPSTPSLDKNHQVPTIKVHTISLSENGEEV

[2] = biological target: Beta-2 adrenergic receptor (Homo sapiens, UniProt P07550); assay type: functional, cell-based
Chain of Beta-2 adrenergic receptor (P07550 whole entry): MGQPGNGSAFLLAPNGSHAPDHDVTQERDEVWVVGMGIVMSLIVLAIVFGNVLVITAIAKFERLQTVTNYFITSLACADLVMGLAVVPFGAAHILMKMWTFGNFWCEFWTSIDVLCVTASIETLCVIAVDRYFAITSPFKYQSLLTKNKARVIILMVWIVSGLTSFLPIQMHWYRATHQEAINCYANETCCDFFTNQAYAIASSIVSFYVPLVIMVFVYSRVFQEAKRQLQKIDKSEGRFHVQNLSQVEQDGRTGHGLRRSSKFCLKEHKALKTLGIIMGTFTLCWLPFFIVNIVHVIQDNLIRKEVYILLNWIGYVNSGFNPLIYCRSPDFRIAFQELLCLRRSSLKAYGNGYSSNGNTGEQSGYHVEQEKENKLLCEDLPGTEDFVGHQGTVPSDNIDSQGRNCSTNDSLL

Cannabinoid receptor 1 = Cannabinoid receptor 1 (Homo sapiens, UniProt P21554)
Chain of Cannabinoid receptor 1 (P21554 whole entry): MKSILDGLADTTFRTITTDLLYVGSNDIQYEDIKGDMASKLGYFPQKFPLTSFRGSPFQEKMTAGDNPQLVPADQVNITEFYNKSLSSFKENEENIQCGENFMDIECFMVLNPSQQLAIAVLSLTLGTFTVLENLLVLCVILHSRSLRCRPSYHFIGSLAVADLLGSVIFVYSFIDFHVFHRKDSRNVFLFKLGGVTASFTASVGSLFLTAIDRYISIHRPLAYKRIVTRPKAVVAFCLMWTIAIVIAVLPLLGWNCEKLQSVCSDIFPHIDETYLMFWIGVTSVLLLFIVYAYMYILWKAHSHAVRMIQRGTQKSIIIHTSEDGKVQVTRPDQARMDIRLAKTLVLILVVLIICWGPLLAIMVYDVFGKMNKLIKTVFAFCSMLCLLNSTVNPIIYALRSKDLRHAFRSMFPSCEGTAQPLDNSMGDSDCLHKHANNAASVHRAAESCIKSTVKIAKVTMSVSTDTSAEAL

Histamine H3 receptor = Histamine H3 receptor (Homo sapiens, UniProt Q9Y5N1)
Chain of Histamine H3 receptor (Q9Y5N1 whole entry): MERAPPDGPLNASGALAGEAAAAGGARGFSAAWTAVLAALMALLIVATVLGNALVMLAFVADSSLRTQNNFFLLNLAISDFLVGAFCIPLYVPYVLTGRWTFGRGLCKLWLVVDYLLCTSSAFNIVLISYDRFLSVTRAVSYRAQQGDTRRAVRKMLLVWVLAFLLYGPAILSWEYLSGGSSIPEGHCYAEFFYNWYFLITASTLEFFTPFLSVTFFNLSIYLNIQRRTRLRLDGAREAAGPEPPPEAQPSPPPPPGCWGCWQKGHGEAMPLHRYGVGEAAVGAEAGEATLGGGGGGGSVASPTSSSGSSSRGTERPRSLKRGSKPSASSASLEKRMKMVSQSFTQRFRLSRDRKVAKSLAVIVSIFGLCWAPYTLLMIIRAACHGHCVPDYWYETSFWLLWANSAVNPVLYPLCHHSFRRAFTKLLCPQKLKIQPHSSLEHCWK

Endothelin-1 receptor = biological target: T2, Endothelin-1 receptor (Homo sapiens, UniProt P25101)
T2 sequence (P25101 whole entry): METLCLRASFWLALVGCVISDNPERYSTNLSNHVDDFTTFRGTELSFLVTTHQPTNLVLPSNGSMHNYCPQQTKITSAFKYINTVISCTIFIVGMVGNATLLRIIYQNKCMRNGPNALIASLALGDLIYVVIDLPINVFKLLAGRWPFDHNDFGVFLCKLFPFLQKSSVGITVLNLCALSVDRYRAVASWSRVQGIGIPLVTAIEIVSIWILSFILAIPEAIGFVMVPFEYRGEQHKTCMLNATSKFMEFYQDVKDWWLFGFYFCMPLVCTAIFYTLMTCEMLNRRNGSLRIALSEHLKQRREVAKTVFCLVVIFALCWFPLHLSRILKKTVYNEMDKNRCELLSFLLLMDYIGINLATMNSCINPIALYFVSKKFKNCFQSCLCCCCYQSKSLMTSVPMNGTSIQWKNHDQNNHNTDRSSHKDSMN

[3] = biological target: T3, Muscarinic acetylcholine receptor M1 (Homo sapiens, UniProt P11229); assay type: functional
T3 sequence (P11229 whole entry): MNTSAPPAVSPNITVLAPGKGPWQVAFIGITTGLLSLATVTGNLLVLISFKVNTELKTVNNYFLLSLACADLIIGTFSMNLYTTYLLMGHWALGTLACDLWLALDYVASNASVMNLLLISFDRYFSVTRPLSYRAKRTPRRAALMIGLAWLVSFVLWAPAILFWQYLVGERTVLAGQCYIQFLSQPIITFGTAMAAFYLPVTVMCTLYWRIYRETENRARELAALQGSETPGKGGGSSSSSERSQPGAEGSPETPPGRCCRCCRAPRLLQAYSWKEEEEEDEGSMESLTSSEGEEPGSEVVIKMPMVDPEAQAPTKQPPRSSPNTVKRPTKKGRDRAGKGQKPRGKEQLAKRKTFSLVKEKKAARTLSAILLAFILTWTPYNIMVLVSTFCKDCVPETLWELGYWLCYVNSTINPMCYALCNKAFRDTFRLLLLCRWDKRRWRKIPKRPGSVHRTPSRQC

[4] = biological target: Muscarinic acetylcholine receptor M3 (Homo sapiens, UniProt P20309)
Chain of Muscarinic acetylcholine receptor M3 (P20309 whole entry): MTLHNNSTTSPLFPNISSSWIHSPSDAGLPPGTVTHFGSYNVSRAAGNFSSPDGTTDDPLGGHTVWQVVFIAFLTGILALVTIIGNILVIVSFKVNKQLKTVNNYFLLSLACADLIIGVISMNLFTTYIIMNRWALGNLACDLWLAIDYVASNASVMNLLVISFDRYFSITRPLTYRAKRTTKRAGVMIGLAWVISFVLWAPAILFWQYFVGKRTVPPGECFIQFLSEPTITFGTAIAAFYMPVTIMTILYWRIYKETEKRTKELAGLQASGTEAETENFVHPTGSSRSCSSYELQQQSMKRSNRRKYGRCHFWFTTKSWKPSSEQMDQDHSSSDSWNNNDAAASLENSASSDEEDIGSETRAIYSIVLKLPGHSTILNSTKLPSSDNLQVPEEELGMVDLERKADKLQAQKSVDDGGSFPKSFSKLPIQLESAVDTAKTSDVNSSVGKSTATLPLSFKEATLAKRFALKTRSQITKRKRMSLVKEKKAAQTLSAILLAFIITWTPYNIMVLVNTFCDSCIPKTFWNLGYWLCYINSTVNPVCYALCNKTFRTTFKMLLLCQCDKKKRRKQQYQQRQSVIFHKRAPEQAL

Histamine H1 receptor = Histamine H1 receptor (Homo sapiens, UniProt P35367)
Chain of Histamine H1 receptor (P35367 whole entry): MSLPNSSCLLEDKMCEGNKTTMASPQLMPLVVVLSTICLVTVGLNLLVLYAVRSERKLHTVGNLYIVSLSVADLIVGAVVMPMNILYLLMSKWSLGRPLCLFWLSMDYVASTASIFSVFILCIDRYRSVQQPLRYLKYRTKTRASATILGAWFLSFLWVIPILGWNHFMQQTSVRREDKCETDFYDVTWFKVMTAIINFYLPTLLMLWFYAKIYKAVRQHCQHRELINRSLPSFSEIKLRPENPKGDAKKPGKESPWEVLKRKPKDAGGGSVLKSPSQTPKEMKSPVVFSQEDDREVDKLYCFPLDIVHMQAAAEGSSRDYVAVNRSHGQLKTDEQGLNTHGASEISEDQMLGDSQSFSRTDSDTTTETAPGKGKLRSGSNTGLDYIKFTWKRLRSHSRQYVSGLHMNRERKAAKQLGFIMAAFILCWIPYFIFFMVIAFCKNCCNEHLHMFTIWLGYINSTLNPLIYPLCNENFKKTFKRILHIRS

[5] = biological target: 5-hydroxytryptamine receptor 2A (Homo sapiens, UniProt P28223); assay type: functional, cell-based
Chain of 5-hydroxytryptamine receptor 2A (P28223 whole entry): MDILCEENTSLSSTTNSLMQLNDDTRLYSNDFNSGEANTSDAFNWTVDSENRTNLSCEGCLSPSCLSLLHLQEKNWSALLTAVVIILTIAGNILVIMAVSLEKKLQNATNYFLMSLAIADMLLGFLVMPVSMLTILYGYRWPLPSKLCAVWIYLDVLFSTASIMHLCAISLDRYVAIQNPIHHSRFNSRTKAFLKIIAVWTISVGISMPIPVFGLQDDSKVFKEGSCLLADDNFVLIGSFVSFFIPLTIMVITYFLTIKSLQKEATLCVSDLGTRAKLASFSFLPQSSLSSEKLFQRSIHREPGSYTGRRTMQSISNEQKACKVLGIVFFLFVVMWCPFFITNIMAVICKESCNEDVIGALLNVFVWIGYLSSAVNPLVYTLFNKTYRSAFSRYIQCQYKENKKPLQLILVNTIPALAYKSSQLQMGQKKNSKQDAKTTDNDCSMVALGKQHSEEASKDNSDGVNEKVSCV

Mu-type opioid receptor = Mu-type opioid receptor (Homo sapiens, UniProt P35372)
Chain of Mu-type opioid receptor (P35372 whole entry): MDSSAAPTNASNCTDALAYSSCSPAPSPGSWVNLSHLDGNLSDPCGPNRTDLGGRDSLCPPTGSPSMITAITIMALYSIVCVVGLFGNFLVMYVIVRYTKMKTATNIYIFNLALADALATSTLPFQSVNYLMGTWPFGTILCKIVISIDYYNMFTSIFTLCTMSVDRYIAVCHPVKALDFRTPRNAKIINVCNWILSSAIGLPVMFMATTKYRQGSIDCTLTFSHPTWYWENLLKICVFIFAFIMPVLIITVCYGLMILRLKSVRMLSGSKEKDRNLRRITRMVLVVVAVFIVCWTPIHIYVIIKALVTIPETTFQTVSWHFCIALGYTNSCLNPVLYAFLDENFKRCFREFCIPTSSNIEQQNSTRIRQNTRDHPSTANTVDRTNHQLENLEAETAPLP

Androgen receptor = biological target: T4, Androgen receptor (Rattus norvegicus, UniProt P15207); assay type: functional
T4 sequence (P15207 whole entry): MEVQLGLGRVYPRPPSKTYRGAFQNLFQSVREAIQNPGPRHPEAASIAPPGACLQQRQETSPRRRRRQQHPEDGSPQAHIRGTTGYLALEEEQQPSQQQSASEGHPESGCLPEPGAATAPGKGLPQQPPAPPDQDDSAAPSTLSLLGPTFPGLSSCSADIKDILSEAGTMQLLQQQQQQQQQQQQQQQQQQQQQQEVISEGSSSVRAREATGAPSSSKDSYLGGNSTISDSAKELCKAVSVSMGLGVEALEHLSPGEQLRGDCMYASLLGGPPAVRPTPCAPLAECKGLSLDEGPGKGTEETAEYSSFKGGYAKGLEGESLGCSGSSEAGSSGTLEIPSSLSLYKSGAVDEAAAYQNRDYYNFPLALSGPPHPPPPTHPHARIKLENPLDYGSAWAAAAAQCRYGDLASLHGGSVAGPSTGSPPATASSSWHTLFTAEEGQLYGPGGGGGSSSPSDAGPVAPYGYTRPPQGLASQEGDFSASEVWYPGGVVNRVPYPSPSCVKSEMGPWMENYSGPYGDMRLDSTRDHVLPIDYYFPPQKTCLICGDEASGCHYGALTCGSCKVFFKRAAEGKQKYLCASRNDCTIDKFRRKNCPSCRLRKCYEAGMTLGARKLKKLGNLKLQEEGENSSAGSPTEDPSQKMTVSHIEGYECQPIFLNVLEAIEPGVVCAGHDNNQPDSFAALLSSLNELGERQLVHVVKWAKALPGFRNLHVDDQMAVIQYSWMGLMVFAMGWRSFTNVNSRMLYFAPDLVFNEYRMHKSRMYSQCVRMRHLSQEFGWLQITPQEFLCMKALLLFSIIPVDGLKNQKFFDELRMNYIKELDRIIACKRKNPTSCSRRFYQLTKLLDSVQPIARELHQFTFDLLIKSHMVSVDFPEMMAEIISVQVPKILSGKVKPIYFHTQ
Further: assay procedure not described here.

SMILES	AC50 [1]	AC50 [2]	AC50 (Cannabinoid receptor 1)	AC50 (Histamine H3 receptor)	AC50 (Endothelin-1 receptor)	AC50 [3]	AC50 [4]	AC50 (Histamine H1 receptor)	AC50 [5]	AC50 (Mu-type opioid receptor)	AC50 (Androgen receptor)
Clc1ccccc1C(c1ccccc1)(c1ccccc1)n1ccnc1 [CLOTRIMAZOLE]	> 10 µM	> 30 µM	> 10 µM	> 10 µM	–	–	–	–	–	–	–
Brc1c(NC2=NCCN2)ccc2nccnc12 [BRIMONIDINE]	–	> 30 µM	–	> 30 µM	> 30 µM	–	–	–	–	–	–
CC(CC1c2ccccc2CCc2ccccc21)CN(C)C (centres undefined) [BUTRIPTYLINE]	–	> 30 µM	–	–	–	0.23 µM	1.4 µM	0.015 µM	> 30 µM	–	–
COc1ccc2c3c1O[C@H]1[C@@H](O)CC[C@H]4[C@@H](C2)N(C)CC[C@@]341 [DIHYDROCODEINE]	–	> 30 µM	–	–	–	> 30 µM	> 30 µM	> 30 µM	> 30 µM	–	–
C[C@H]1COc2c(C3(N)CC3)c(F)cc3c(=O)c(C(=O)O)cn1c23 [PAZUFLOXACIN]	> 10 µM	–	> 10 µM	–	–	> 10 µM	> 30 µM	> 10 µM	> 10 µM	> 30 µM	–
NC(=O)OCC(COC(N)=O)c1ccccc1 [FELBAMATE]	> 10 µM	–	> 10 µM	–	–	> 10 µM	> 30 µM	> 10 µM	> 10 µM	> 30 µM	–
C#C[C@]1(O)CC[C@H]2[C@@H]3[C@H](C)CC4=C(CCC(=O)C4)[C@H]3CC[C@@]21C [TIBOLONE]	–	> 30 µM	–	> 30 µM	> 30 µM	–	–	–	–	–	–
CC/C(=C(\c1ccccc1)c1ccc(OCCN(C)C)cc1)c1ccccc1 [TAMOXIFEN]	> 10 µM	–	–	> 30 µM	–	–	–	–	–	> 30 µM	–
Cc1nnc2n1-c1ccc(Cl)cc1C(c1ccccc1Cl)=NC2 [TRIAZOLAM]	> 10 µM	–	–	> 10 µM	–	> 10 µM	> 30 µM	> 10 µM	> 30 µM	> 30 µM	–
O=C1C(O)=C([C@H]2CC[C@H](c3ccc(Cl)cc3)CC2)C(=O)c2ccccc21 [ATOVAQUONE]	> 30 µM	–	> 30 µM	> 30 µM	> 30 µM	> 30 µM	> 30 µM	> 30 µM	> 30 µM	–	> 30 µM
CC(C)(C)NCC(O)COc1cccc2c1CCC(=O)N2 (centres undefined) [CARTEOLOL]	> 10 µM	–	–	–	–	> 10 µM	> 30 µM	> 10 µM	> 10 µM	> 30 µM	–
Cc1cc(C(C)(C)C)c(O)c(C)c1CC1=NCCN1 [OXYMETAZOLINE]	–	> 30 µM	–	–	–	–	–	–	–	> 30 µM	> 30 µM
CC1(C)CCC(CN2CCN(c3ccc(C(=O)NS(=O)(=O)c4ccc(NCC5CCOCC5)c([N+](=O)[O-])c4)c(Oc4cnc5[nH]ccc5c4)c3)CC2)=C(c2ccc(Cl)cc2)C1 [VENETOCLAX]	–	> 30 µM	–	–	–	> 30 µM	–	> 30 µM	–	–	> 30 µM
Fc1ccc(C(c2ccccc2)(c2ccccc2F)n2ccnc2)cc1 (centres undefined) [FLUTRIMAZOLE]	–	–	–	> 30 µM	> 30 µM	> 30 µM	> 30 µM	> 30 µM	> 30 µM	–	> 30 µM
Nc1nc(Cl)nc2c1ncn2[C@H]1C[C@H](O)[C@@H](CO)O1 [CLADRIBINE]	–	> 30 µM	–	> 30 µM	> 30 µM	–	–	–	–	–	–
COc1cccc(C2(O)CCCCC2CN(C)C)c1 (centres undefined) [TRAMADOL]	> 10 µM	> 30 µM	> 10 µM	> 10 µM	> 30 µM	–	–	–	–	–	–
C[C@@H]1O[C@@H](O[C@@H]2C=C3CC[C@@H]4[C@H](CC[C@]5(C)[C@@H](c6ccc(=O)oc6)CC[C@]45O)[C@@]3(C)CC2)[C@H](O)[C@H](O)[C@H]1O [PROSCILLARIDIN]	–	> 30 µM	–	> 30 µM	> 30 µM	–	–	–	–	–	> 30 µM
NC(=O)CN1CC(O)CC1=O (centres undefined) [OXIRACETAM]	> 30 µM	> 30 µM	–	> 30 µM	> 30 µM	> 30 µM	> 30 µM	> 30 µM	> 30 µM	–	> 30 µM
COc1ccc(CCNCC(O)COc2cccc(C)c2)cc1OC (centres undefined) [BEVANTOLOL]	1.2 µM	–	> 10 µM	–	–	> 10 µM	> 30 µM	> 10 µM	> 10 µM	> 10 µM	–
Cc1c(OCC(F)(F)F)ccnc1C[S+]([O-])c1nc2ccccc2[nH]1 (centres undefined) [LANSOPRAZOLE]	> 10 µM	–	–	–	> 30 µM	–	–	–	–	4 µM	–
